Laboratory results taken from the Kinase Knowledgebase extract (Sharma et al. 2016).

Assays:
PIK3CA (human) = PIK3CA (human) (UniProt P42336); assay: Inhibition of PIK3CA Kinase Activity
PIK3CD (Human) = PIK3CD (Human) (UniProt O00329); assay: Inhibition of PIK3CD Kinase Activity
PIK3CG (human) = PIK3CG (human) (UniProt P48736); assay: Inhibition of PIK3CG Kinase Activity
PIK3CB (Human) = PIK3CB (Human) (UniProt P42338); assay: Inhibition of PIK3CB Kinase Activity
Chain of PIK3CB (Human) (P42338 whole entry, looked up): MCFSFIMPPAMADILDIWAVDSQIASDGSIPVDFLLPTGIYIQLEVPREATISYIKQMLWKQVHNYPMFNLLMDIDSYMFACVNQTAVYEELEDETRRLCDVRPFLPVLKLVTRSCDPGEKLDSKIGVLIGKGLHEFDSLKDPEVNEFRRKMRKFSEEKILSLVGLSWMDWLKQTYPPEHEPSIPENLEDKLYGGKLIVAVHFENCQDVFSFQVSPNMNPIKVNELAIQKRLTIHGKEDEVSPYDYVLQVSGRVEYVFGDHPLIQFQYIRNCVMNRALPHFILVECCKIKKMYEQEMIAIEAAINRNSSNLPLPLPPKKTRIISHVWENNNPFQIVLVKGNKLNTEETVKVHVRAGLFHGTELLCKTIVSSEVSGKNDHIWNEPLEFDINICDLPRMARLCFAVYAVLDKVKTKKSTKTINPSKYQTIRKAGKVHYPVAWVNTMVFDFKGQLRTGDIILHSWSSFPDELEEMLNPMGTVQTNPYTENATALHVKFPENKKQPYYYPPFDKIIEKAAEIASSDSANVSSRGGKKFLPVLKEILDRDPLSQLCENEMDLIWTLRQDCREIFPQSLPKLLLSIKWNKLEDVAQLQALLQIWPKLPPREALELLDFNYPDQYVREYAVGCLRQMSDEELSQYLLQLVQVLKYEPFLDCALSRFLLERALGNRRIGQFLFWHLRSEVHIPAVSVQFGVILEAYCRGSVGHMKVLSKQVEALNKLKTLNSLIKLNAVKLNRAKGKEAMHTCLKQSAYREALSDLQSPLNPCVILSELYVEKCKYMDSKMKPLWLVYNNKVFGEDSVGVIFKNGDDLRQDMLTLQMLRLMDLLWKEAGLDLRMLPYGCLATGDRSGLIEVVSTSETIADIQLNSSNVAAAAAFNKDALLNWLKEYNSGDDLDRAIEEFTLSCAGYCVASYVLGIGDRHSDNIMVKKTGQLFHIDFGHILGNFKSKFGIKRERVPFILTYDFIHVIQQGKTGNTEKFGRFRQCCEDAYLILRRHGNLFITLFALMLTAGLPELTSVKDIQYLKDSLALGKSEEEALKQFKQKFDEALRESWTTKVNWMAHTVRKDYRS

Chain of PIK3CD (Human) (O00329 whole entry, looked up): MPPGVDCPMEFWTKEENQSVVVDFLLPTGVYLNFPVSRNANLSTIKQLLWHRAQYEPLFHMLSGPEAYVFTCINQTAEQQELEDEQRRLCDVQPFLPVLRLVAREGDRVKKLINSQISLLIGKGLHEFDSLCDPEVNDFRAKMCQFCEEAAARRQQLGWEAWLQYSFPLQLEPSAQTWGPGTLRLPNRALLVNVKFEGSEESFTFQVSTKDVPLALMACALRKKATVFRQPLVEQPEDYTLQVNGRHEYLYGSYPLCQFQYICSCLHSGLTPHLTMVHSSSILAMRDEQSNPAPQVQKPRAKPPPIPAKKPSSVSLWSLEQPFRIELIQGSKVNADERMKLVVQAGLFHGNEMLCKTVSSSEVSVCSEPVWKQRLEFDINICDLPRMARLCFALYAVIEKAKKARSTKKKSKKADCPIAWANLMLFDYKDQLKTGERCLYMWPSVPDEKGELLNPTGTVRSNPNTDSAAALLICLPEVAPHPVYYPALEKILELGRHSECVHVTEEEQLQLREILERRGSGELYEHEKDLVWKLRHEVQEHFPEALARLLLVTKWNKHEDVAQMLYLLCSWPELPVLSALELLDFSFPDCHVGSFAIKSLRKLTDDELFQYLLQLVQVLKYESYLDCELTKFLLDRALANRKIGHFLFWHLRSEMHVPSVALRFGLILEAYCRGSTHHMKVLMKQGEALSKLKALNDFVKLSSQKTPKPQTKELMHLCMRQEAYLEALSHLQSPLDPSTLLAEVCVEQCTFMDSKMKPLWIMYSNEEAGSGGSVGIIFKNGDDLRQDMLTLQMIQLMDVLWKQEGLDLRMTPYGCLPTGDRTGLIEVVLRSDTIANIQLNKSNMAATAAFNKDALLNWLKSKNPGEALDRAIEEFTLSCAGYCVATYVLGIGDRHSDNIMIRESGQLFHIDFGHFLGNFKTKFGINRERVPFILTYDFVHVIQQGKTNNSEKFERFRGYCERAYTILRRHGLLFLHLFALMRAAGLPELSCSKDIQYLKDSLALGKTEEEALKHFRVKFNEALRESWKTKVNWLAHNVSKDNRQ
Chain of PIK3CA (human) (P42336 whole entry, looked up): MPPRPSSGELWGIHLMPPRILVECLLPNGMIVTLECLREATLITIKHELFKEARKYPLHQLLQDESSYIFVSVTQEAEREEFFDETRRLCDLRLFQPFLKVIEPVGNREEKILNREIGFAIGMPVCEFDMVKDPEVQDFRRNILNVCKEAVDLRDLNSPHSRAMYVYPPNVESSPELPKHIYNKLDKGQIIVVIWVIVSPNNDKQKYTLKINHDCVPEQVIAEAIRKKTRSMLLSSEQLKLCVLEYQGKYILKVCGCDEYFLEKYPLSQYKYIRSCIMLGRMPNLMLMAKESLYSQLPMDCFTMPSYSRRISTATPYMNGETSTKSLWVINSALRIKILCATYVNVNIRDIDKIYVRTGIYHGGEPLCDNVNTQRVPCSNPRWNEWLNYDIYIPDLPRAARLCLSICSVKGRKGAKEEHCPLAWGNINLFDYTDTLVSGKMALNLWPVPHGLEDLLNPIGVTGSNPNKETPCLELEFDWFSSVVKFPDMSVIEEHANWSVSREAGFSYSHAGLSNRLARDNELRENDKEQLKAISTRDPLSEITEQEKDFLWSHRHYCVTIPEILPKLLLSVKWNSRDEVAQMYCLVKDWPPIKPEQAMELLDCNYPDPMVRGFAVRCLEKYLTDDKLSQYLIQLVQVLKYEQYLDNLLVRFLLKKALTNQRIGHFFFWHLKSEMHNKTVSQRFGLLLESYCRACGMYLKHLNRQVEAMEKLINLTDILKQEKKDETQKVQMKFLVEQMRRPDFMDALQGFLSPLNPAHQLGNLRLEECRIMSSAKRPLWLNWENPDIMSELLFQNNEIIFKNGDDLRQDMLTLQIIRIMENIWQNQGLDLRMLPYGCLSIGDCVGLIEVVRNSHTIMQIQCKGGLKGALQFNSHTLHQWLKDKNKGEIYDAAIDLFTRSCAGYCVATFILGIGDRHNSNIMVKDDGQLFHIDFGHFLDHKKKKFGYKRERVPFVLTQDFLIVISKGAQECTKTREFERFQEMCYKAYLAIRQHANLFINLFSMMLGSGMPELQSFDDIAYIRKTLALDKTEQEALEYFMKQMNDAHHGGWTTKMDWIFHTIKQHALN
Chain of PIK3CG (human) (P48736 whole entry, looked up): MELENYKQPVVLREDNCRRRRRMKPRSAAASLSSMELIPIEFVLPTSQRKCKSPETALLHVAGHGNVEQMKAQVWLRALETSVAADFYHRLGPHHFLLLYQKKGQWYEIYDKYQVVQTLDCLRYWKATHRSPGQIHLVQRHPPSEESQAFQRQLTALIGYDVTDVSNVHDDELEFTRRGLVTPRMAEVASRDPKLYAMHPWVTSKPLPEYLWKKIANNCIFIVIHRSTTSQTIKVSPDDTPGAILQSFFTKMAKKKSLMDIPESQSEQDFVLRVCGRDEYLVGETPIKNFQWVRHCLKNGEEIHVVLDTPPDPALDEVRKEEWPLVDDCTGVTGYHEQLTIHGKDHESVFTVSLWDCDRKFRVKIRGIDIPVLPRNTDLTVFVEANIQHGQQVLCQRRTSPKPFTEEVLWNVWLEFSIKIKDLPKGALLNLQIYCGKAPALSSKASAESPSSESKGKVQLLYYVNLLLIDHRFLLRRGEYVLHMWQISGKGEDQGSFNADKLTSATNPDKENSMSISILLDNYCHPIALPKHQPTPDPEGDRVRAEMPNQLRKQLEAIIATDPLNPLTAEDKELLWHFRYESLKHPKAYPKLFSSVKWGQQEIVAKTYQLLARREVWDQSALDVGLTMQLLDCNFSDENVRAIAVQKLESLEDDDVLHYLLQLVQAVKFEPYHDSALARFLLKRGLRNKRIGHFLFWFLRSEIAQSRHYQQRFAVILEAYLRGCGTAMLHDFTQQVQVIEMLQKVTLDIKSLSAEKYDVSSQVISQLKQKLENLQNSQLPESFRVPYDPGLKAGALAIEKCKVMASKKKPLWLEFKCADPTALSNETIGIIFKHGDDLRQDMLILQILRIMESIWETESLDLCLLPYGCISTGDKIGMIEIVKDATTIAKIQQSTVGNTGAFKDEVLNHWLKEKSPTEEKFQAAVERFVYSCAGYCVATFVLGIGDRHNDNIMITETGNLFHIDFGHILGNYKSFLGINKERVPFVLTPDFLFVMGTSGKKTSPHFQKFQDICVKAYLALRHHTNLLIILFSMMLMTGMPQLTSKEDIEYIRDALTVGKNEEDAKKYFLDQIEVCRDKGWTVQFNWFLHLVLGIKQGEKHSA

Row | IC50 (PIK3CA (human)) | IC50 (PIK3CD (Human)) | IC50 (PIK3CG (human)) | IC50 (PIK3CB (Human)) | Structure (SMILES)
1 | < 1000 nM | < 1000 nM |  |  | CC(=O)Nc1nc2ccc(-c3cccc(S(=O)(=O)CCCO)c3)cc2s1
2 |  |  | < 1000 nM |  | CC(=O)Nc1nc2ccc(-c3ccc(O)c(F)c3)cc2s1
3 |  |  | > 20000 nM |  | CS(=O)(=O)c1cccc(-c2ccc3nc(NC(=O)NCCc4noc(-c5ccccc5)n4)sc3c2)c1
4 |  | < 1000 nM |  |  | CS(=O)(=O)c1cccc(-c2ccc3nc(NC(=O)C(=O)N4CCCC4)sc3c2)c1
5 | < 1000 nM | < 1000 nM | < 1000 nM | < 1000 nM | CC(=O)Nc1nc2ccc(-c3cncc(S(=O)(=O)N(C)C)c3)cc2s1
6 | < 1000 nM | < 1000 nM |  |  | CC(=O)Nc1cn2cc(-c3cccc(S(C)(=O)=O)c3)ccc2n1
7 | < 1000 nM | < 1000 nM | < 1000 nM |  | CC(=O)Nc1nc2ccc(-c3cccc(S(=O)(=O)NC(CO)CO)c3)cc2s1
8 |  |  | < 1000 nM |  | CC(=O)Nc1nc2ccc(-c3cccc(C(N)=O)c3)cc2s1
9 |  |  | < 1000 nM | < 1000 nM | CS(=O)(=O)c1cccc(-c2ccc3nc(NC(=O)NCCC(=O)N4CCOCC4)sc3c2)c1
10 | < 1000 nM | < 1000 nM | < 1000 nM |  | CC(=O)Nc1nc2ccc(-c3cccc(S(=O)(=O)NC4CCCNC4)c3)cc2s1 (centres undefined)
11 | < 1000 nM |  |  |  | CC(=O)Nc1nc2ccc(-c3cccc(S(=O)(=O)NC4CCCN(C(=O)OC(C)(C)C)C4)c3)cc2s1 (centres undefined)
12 | < 1000 nM | < 1000 nM | < 1000 nM |  | CCNS(=O)(=O)c1cccc(-c2ccc3nc(NC(C)=O)sc3c2)c1
13 |  |  | < 1000 nM |  | CC(=O)Nc1nc2ccc(-c3ccncc3)cc2s1
14 | < 1000 nM | < 1000 nM | < 1000 nM |  | CC(=O)Nc1nc2ccc(-c3cccc(S(=O)(=O)NCCCO)c3)cc2s1
15 |  |  | < 1000 nM | < 1000 nM | CC(C)n1cnc(CCNC(=O)Nc2nc3ccc(-c4cccc(S(C)(=O)=O)c4)cc3s2)c1
16 | < 1000 nM | < 1000 nM | < 1000 nM |  | CC(=O)Nc1nc2ccc(-c3cccc(S(=O)(=O)N4CCC(O)CC4)c3)cc2s1
17 |  |  | > 20000 nM |  | COC(=O)c1cccc(-c2ccc3nc(NC(C)=O)sc3c2)c1
18 | < 1000 nM | < 1000 nM | < 1000 nM | < 1000 nM | CC(=O)Nc1nc2ccc(-c3cccc(S(=O)(=O)N4CCCC(N)C4)c3)cc2s1 (centres undefined)
19 |  | < 1000 nM |  |  | CCC(=O)Nc1nc2ccc(-c3cccc(S(C)(=O)=O)c3)cc2s1
20 | < 1000 nM | < 1000 nM | < 1000 nM |  | CC(=O)Nc1nc2ccc(-c3cccc(S(C)(=O)=O)c3)cc2s1
21 |  |  | < 1000 nM |  | COc1cc(-c2ccc3nc(NC(=O)NCCC(=O)OC(C)(C)C)sc3c2)ccc1O
22 | < 1000 nM | < 1000 nM | < 1000 nM |  | CC(=O)Nc1nc2ccc(-c3cccc(S(=O)(=O)N(CCO)CCO)c3)cc2s1

Row | IC50 (PIK3CA (human)) | IC50 (PIK3CD (Human)) | IC50 (PIK3CG (human)) | IC50 (PIK3CB (Human)) | Structure (SMILES)
23 | < 1000 nM | < 1000 nM | < 1000 nM |  | CC(=O)Nc1nc2ccc(-c3cccc(S(=O)(=O)N4CCCC(O)C4)c3)cc2s1 (centres undefined)
24 | < 1000 nM | < 1000 nM | < 1000 nM |  | CN(C)C(=O)CNC(=O)Nc1nc2ccc(-c3cccc(S(C)(=O)=O)c3)cc2s1
25 | > 20000 nM |  |  |  | CC(=O)Nc1nc2ccc(-c3cc(C(F)(F)F)cc(S(=O)(=O)NCCO)c3)cc2s1
26 |  |  | < 1000 nM |  | CC(C)n1nnc(CCNC(=O)Nc2nc3ccc(-c4cccc(S(C)(=O)=O)c4)cc3s2)n1
27 |  | < 1000 nM | < 1000 nM | < 1000 nM | CS(=O)(=O)c1cccc(-c2ccc3nc(NC(=O)NCCC(=O)N4CCCC4)sc3c2)c1
28 | < 1000 nM |  |  |  | CC(=O)Nc1nc2ccc(-c3cccc(S(=O)(=O)N4CCN(C)C(=O)C4)c3)cc2s1
29 | < 1000 nM | < 1000 nM | < 1000 nM | < 1000 nM | COc1cc(-c2ccc3nc(NC(C)=O)cn3n2)ccc1O
30 | < 1000 nM | < 1000 nM | < 1000 nM |  | CC(=O)Nc1nc2ccc(-c3cccc(S(=O)(=O)NCC(O)CO)c3)cc2s1 (centres undefined)
31 |  |  | < 1000 nM | < 1000 nM | CC(C)(C)OC(=O)CCNC(=O)Nc1nc2ccc(-c3cccc(S(=O)(=O)NCCO)c3)cc2s1
32 | < 1000 nM | < 1000 nM | < 1000 nM |  | CC(=O)Nc1nc2ccc(-c3cccc(S(N)(=O)=O)c3)cc2s1
33 |  |  |  | < 1000 nM | COc1cc(-c2ccc3nc(NC(=O)NCCc4nc(C(C)C)no4)sc3c2)ccc1O
34 | < 1000 nM | < 1000 nM | < 1000 nM | < 1000 nM | CC(=O)Nc1nc2ccc(-c3cncc(S(N)(=O)=O)c3)cc2s1
35 | < 1000 nM | < 1000 nM | < 1000 nM | < 1000 nM | CC(=O)Nc1nc2ccc(-c3cccc(S(=O)(=O)N(C)CCO)c3)cc2s1
36 | < 1000 nM | < 1000 nM | < 1000 nM |  | CC(=O)Nc1nc2ccc(-c3cccc(S(=O)(=O)NC4CCCOC4)c3)cc2s1 (centres undefined)
37 | < 1000 nM |  | < 1000 nM |  | CC(=O)Nc1nc2ccc(-c3cccc(S(=O)(=O)N(C)C)c3)cc2s1
38 |  |  |  | > 20000 nM | CS(=O)(=O)c1cccc(-c2ccc3nc(NC=O)sc3c2)c1
39 | < 1000 nM | < 1000 nM | < 1000 nM |  | CC(=S)Nc1cn2nc(-c3cccc(S(C)(=O)=O)c3)ccc2n1
40 | < 1000 nM |  | < 1000 nM |  | CC(=O)Nc1nc2ccc(-c3cccc(S(=O)(=O)N4CCOCC4)c3)cc2s1
41 |  |  | < 1000 nM | < 1000 nM | CCOC(=O)CCNC(=O)Nc1nc2ccc(-c3cccc(S(C)(=O)=O)c3)cc2s1
42 | > 20000 nM | > 20000 nM | < 1000 nM | < 1000 nM | CC(C)(C)OC(=O)CCNC(=O)Nc1nc2ccc(-c3cccc(S(C)(=O)=O)c3)cc2s1
43 | < 1000 nM | < 1000 nM | < 1000 nM |  | COCCNS(=O)(=O)c1cccc(-c2ccc3nc(NC(C)=O)sc3c2)c1
44 | > 20000 nM |  |  |  | CC(C)c1noc(CCNC(=O)Nc2nc3ccc(-c4cccc(S(=O)(=O)N(C)C)c4)cc3s2)n1

Row | IC50 (PIK3CA (human)) | IC50 (PIK3CD (Human)) | IC50 (PIK3CG (human)) | IC50 (PIK3CB (Human)) | Structure (SMILES)
45 |  |  |  | > 20000 nM | CC(=O)Nc1nc2ccc(-c3cccc(C(=O)NCCO)c3)cc2s1
46 |  |  | < 1000 nM | < 1000 nM | CC(C)c1noc(CCNC(=O)Nc2nc3ccc(-c4cccc(S(=O)(=O)NCCO)c4)cc3s2)n1
47 |  | < 1000 nM | < 1000 nM |  | CC(=O)Nc1nc2ccc(-c3cccc(S(=O)(=O)CCO)c3)cc2s1
48 | < 1000 nM | < 1000 nM | < 1000 nM |  | CS(=O)(=O)c1cccc(-c2ccc3nc(NC(=O)NCC(=O)N4CCOCC4)sc3c2)c1
49 | < 1000 nM | < 1000 nM | < 1000 nM | < 1000 nM | COc1cc(-c2ccc3nc(NC(C)=O)sc3c2)ccc1O
50 |  |  | < 1000 nM |  | CC(=O)Nc1nc2ccc(-c3cccc(NS(=O)(=O)N(C)C)c3)cc2s1
51 | < 1000 nM | < 1000 nM |  | > 20000 nM | CC(=O)Nc1nc2ccc(-c3cccc(S(C)(=O)=O)n3)cc2s1
52 |  | > 20000 nM |  |  | COc1cccc(-c2ccc3nc(NC(C)=O)sc3c2)c1
53 | < 1000 nM | < 1000 nM | < 1000 nM | < 1000 nM | CC(=O)Nc1nc2ccc(-c3cccc(S(=O)(=O)NCCO)c3)cc2s1
54 | > 20000 nM | > 20000 nM |  |  | CC(C)(C)OCCCNC(=O)Nc1nc2ccc(-c3cccc(S(C)(=O)=O)c3)cc2s1
55 |  | < 1000 nM |  |  | CC(=O)Nc1nc2ccc(-c3ccc(C)c(S(C)(=O)=O)c3)cc2s1
56 | > 20000 nM |  | < 1000 nM | < 1000 nM | CN(C)S(=O)(=O)c1cccc(-c2ccc3nc(NC(=O)NCCC(=O)OC(C)(C)C)sc3c2)c1
57 | < 1000 nM | < 1000 nM | < 1000 nM |  | CC(=O)Nc1nc2ccc(-c3ccc(Cl)c(S(=O)(=O)NCCO)c3)cc2s1
58 | < 1000 nM |  |  |  | CC(=O)Nc1nc2ccc(-c3cccc(S(=O)(=O)N4CCCC(NC(=O)OC(C)(C)C)C4)c3)cc2s1 (centres undefined)
59 | < 1000 nM | < 1000 nM | < 1000 nM |  | CC(=O)Nc1cn2nc(-c3cccc(S(C)(=O)=O)c3)ccc2n1
60 | < 1000 nM | < 1000 nM | < 1000 nM |  | CC(=O)Nc1cn2nc(-c3cccc(S(=O)(=O)NCCO)c3)ccc2n1
61 | < 1000 nM | < 1000 nM | < 1000 nM |  | CC(=O)Nc1nc2ccc(-c3cccc(S(=O)(=O)NCCN4CCOCC4)c3)cc2s1
62 | < 1000 nM | < 1000 nM | < 1000 nM | < 1000 nM | COc1cc(-c2ccc3nc(NC(=O)NCC(=O)N4CCOCC4)sc3c2)ccc1O
63 | > 20000 nM | > 20000 nM |  |  | CS(=O)(=O)c1cccc(-c2ccc3nc(NC(=O)c4ccco4)sc3c2)c1
64 | < 1000 nM | < 1000 nM | < 1000 nM |  | CC(=O)Nc1nc2ccc(-c3cccc(NS(C)(=O)=O)c3)cc2s1
